Laboratory results from US9260446B2, “Synthetic methods for spiro-oxindole compounds” (Xenon Pharmaceuticals Inc., priority 2009, dated 2016).

The compounds below were run against hNav1.7 (Homo sapiens (Human), UniProt Q15858). Conditions: voltage-gated sodium channel blocking activity against hNav1.7.
hNav1.7, sequence (Q15858 whole entry): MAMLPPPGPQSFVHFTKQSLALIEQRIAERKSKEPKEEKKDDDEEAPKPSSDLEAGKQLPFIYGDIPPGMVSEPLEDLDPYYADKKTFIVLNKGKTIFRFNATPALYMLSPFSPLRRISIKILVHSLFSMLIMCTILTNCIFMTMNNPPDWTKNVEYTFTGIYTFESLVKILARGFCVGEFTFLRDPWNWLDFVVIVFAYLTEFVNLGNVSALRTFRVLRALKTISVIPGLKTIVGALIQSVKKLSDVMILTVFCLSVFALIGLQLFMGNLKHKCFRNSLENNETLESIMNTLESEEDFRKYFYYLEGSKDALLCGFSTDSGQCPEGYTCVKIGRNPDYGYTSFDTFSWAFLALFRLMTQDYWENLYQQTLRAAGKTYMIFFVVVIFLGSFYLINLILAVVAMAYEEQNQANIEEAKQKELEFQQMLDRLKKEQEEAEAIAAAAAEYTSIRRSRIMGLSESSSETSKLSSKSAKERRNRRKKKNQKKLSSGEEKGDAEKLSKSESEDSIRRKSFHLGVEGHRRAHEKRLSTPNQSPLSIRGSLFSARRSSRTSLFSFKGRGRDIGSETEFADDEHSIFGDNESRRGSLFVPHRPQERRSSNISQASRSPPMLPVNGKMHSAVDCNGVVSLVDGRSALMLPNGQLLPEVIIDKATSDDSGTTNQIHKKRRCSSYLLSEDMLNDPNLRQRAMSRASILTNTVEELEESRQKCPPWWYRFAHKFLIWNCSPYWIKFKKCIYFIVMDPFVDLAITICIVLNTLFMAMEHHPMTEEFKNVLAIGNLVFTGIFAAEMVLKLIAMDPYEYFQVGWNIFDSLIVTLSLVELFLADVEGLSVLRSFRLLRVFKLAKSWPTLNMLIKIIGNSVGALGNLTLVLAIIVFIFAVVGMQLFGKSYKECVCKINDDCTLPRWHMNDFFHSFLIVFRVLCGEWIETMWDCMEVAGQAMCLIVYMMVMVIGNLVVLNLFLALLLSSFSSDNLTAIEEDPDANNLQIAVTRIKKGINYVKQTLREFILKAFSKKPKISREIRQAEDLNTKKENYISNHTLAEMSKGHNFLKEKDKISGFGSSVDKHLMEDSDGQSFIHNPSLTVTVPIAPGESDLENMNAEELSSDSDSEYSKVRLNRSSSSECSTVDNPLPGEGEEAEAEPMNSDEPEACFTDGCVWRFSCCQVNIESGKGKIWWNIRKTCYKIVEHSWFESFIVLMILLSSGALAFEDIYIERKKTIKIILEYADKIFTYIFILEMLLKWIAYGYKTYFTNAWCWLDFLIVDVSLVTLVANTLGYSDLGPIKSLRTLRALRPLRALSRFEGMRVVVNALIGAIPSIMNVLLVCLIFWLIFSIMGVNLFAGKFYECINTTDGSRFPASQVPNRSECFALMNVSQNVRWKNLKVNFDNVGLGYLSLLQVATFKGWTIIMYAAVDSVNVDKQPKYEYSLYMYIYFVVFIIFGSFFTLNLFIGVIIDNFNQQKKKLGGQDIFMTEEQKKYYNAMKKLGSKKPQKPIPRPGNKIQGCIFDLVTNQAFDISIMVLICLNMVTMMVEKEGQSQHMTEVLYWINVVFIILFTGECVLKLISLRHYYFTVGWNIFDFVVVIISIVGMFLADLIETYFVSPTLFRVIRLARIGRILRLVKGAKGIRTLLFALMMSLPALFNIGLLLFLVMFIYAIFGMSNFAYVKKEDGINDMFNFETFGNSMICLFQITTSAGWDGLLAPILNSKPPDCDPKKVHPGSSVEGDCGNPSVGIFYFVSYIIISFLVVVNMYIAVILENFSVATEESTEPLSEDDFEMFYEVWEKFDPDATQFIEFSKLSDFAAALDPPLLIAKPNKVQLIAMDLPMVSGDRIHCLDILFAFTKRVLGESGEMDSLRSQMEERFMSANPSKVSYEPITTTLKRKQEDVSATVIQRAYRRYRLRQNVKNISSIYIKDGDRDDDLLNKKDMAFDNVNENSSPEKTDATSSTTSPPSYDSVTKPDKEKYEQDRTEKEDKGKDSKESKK

Structure (SMILES)	IC50
O=C1N(Cc2ccc(C(F)(F)F)o2)c2ccccc2C12COc1cc3c(cc12)OCO3 (centres unmarked) [(I), 1′-{[5-(trifluoromethyl)-2-furyl]methyl}spiro[furo[2,3-f][1,3]benzodioxole-7,3′-indol]-2′(1′H)-one]	7 nM
O=C1N(Cc2ccc(C(F)(F)F)o2)c2ccccc2[C@@]12COc1cc3c(cc12)OCO3 [(I-R), (R)-1′-{[5-(trifluoromethyl)furan-2-yl]methyl}spiro[furo[2,3-f][1,3]-benzodioxole-7,3′-indol]-2′(1′H)-one]	4200 nM
O=C1N(Cc2ccc(C(F)(F)F)o2)c2ccccc2[C@]12COc1cc3c(cc12)OCO3 [(I-S), (S)-1′-{[5-(trifluoromethyl)furan-2-yl]methyl}spiro-[furo[2,3-f][1,3]benzodioxole-7,3′-indol]-2′(1′H)-one]	3 nM
O=C1N(Cc2ncccc2C(F)(F)F)c2ccccc2C12COc1cc3c(cc12)OCCO3 (centres unmarked) [(II), 1′-{[3-(trifluoromethyl)pyridin-2-yl]methyl}-2,3-dihydrospiro[furo[2,3-g][1,4]benzodioxine-8,3′-indol]-2′(1′H)-one]	15 nM
O=C1N(Cc2ncccc2C(F)(F)F)c2ccccc2[C@]12COc1cc3c(cc12)OCCO3 [(II-S), (S)-1′-{[3-(trifluoromethyl)pyridin-2-yl]methyl}-2,3-dihydrospiro[furo[2,3-g][1,4]benzodioxine-8,3′-indol]-2′(1′H)-one]	5 nM
